Assay results reported in article PMC8972196, “A Set of Experimentally Validated Decoys for the Human CC Chemokine Receptor 7 (CCR7) Obtained by Virtual Screening” (Frontiers in Pharmacology, 2022).
Where two headings read alike, the source gives them in different places.

Biological target: T1, human CCR7 (Homo sapiens, UniProt P32248)
T1 construct: expressed in transfected cells
T1 sequence (P32248 25-378): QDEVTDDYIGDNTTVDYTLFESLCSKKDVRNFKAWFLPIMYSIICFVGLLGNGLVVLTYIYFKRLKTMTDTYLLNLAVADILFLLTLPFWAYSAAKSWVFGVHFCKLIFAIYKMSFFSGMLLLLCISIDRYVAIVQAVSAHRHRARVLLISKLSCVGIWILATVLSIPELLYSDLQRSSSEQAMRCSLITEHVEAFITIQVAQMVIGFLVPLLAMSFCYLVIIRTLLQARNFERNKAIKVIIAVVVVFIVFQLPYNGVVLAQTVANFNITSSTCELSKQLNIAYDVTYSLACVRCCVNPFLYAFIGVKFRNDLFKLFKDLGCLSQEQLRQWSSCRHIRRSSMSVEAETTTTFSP
Assay: CCL19-induced calcium mobilization assay, U87.CD4 cells expressing CCR7
Format: cell-based
Conditions: for IC50: read-out: IC50 [μM] block CCL19 induced calcium signaling
Procedure: U87.CD4 cells that stably express either human CCR7, CXCR2, CCR5 or CXCR4 were seeded (20,000 cells/well) in gelatin-coated black-walled polystyrene 96-well plates with clear bottom and incubated overnight at 37°C and 5% CO2. […] Culture medium was removed, and cells were incubated for 45 min at room temperature in the dark. […] Exactly the same protocol was used to record calcium responses in Chinese hamster ovary (CHO)-K1 cells, upon stimulation with adenosine triphosphate (ATP, purchased from Sigma).

[1] = CCL19 induced calcium signaling
[2] = classification as decoy or active on CCR7
[3] = CCL19-induced calcium signaling
[4] = classification of tested compounds as decoy or active

Row | SMILES | IC50 [1] | Decoy – 0 Active – 1 [2] | IC50 [3] | Decoy – 0 Active – 1 [4]
1 | O=C1CCC(C(=O)N2CCCC2c2ccc3c(c2)OCO3)N1 (centres unmarked) [C231, O=C1CCC(C(=O)N2CCCC2c2ccc3c(c2)OCO3)N1] | > 50 µM | 0 |  | 
2 | CC(C)[C@@H](NC(=O)c1cccc(NC(=O)C2CC2)c1)c1ccccn1 [C155, CC(C)[C@@H](NC(=O)c1cccc(NC(=O)C2CC2)c1)c1ccccn1] |  |  | > 50 µM | 0
3 | Cn1ncc(NC(=S)Nc2ccccc2C(F)(F)F)c1C(N)=O [C037, Cn1ncc(NC(=S)Nc2ccccc2C(F)(F)F)c1C(N)=O] |  |  | > 30 µM | 0
4 | O=C(CCCc1c[nH]c2ccccc12)N1CCN(C(=O)CCCc2c[nH]c3ccccc23)CC1 [C209, O=C(CCCc1c[nH]c2ccccc12)N1CCN(C(=O)CCCc2c[nH]c3ccccc23)CC1] | > 50 µM | 0 |  | 
5 | O=C(c1cn2ccccc2n1)N(CCN1CCCC1)Cc1ccc(Cl)c(Cl)c1 [C280, O=C(c1cn2ccccc2n1)N(CCN1CCCC1)Cc1ccc(Cl)c(Cl)c1] | > 50 µM | 0 |  | 
6 | CCNC(=O)c1ccc(CNS(=O)(=O)c2ccc3c(c2)CCC3)cc1 [C261, CCNC(=O)c1ccc(cc1)CNS(=O)(=O)c2ccc3c(c2)CCC3] | > 50 µM | 0 |  | 
7 | CCCc1ccc(S(=O)(=O)NC2COc3ccc(OC)cc3C2)cc1 (centres unmarked) [C254, CCCc1ccc(cc1)S(=O)(=O)NC2Cc3cc(ccc3OC2)OC] | > 50 µM | 0 |  | 
8 | CC(=O)N[C@@H](Cc1ccccc1)C(=O)N[C@H](C)c1ccccc1 [C144, CC(=O)N[C@@H](Cc1ccccc1)C(=O)N[C@H](C)c1ccccc1] |  |  | > 50 µM | 0
9 | O=C1CCC(C(=O)NC(c2ccc(F)cc2)C(F)(F)F)N1 (centres unmarked) [C204, O=C1CCC(C(=O)NC(c2ccc(F)cc2)C(F)(F)F)N1] | > 50 µM | 0 |  | 
10 | Cc1ccc(N2C(=O)C3C(C(=O)O)NC(c4ccccc4O)C3C2=O)cc1 (centres unmarked) [C186, Cc1ccc(N2C(=O)C3C(C(=O)[O-])[NH2+]C(c4ccccc4O)C3C2=O)cc1] | > 50 µM | 0 |  | 
11 | CN(C)C(=O)c1ccc(CN2CCCC2c2cccc(Cl)c2)[nH]1 (centres unmarked) [C287, CN(C)C(=O)c1ccc(CN2CCCC2c2cccc(Cl)c2)[nH]1] | > 50 µM | 0 |  | 
12 | COc1ccc(C(Cc2ccccc2)NC(=O)N2CCC(O)C(F)(F)C2)cc1 (centres unmarked) [C181, COc1ccc(C(Cc2ccccc2)NC(=O)N2CCC(O)C(F)(F)C2)cc1] | > 50 µM | 0 |  | 
13 | CCN(Cc1ccc(Cl)cc1)Cc1cc(=O)c2cccc(F)c2[nH]1 [C278, CCN(Cc1ccc(Cl)cc1)Cc1cc(=O)c2cccc(F)c2[nH]1] | > 50 µM | 0 |  | 
14 | Cc1cccnc1[C@H](N[C@H]1CCN(CC(F)(F)F)C1=O)C(C)C [C138, Cc1cccnc1[C@H]([NH2+][C@H]1CCN(CC(F)(F)F)C1=O)C(C)C] |  |  | > 50 µM | 0
15 | COc1ccc(S(=O)(=O)N(CC(=O)Nc2cccc(OC)c2)c2ccccc2)cc1 [C245, COc1ccc(cc1)S(=O)(=O)N(CC(=O)Nc2cccc(c2)OC)c3ccccc3] | > 50 µM | 0 |  | 
16 | O=C1CC(C(=O)NC2CCCc3ccccc32)Cc2nc(NC(=O)C3CCC3)sc21 (centres unmarked) [C226, O=C1CC(C(=O)NC2CCCc3ccccc32)Cc2nc(NC(=O)C3CCC3)sc21] | > 50 µM | 0 |  | 
17 | Cc1cccc(N[C@H]2CS(=O)(=O)C[C@H]2OC(=O)c2ccccc2)c1 [C121, Cc1cccc(N[C@H]2CS(=O)(=O)C[C@H]2OC(=O)c2ccccc2)c1] |  |  | > 50 µM | 0
18 | Cn1ccnc1[C@H](NC1=NS(=O)(=O)c2ccccc21)c1cccc(F)c1 [C153, Cn1ccnc1[C@H](NC1=NS(=O)(=O)c2ccccc21)c1cccc(F)c1] |  |  | > 50 µM | 0
19 | O=C(Nc1ccc(Cl)cc1Cl)NC(Cc1ccc(O)cc1)C(=O)O (centres unmarked) [C184, O=C(Nc1ccc(Cl)cc1Cl)NC(Cc1ccc(O)cc1)C(=O)[O-]] | > 50 µM | 0 |  | 
